The source made the active and inactive calls.
Columns and labels:
[1] = target: Eukaryotic translation initiation factor 4E (Mus musculus, UniProt P63073); assay: eIF4E–eIF4G protein interaction inhibitors, dose response, biochemical, TR-FRET (AID 855); assay type: functional;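 further: potency for disrupting eIF4E binding to eIF4GI seen as loss of FRET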
[2] = target: T1, Carboxy-terminal domain RNA polymerase II polypeptide A small phosphatase 1 (Homo sapiens, UniProt Q9GZU7); assay: inhibitors of CTDSP1, concentration-response testing, biochemical assay, absorbance-based, actives from ultra-high-throughput screening (AID 540297); assay type: functional
T1 sequence (Q9GZU7 whole entry): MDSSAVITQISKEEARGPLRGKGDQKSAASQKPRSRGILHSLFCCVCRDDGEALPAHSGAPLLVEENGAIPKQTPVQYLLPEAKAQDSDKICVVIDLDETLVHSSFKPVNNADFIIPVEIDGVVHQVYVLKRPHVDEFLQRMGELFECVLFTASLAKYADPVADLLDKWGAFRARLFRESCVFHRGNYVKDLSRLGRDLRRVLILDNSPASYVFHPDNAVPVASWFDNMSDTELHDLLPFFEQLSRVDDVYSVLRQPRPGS

[3] = target: DNA dC->dU-editing enzyme APOBEC-3A (Homo sapiens, UniProt P31941); assay: Dose Response confirmation of small molecule APOBEC3A DNA Deaminase Inhibitors via a fluorescence-based single-stranded DNA deaminase assay. [Related pubchem assays (depositor defined):AID493011, AID493024]; assay type: functional
Cytochrome P450 2C9 = Cytochrome P450 2C9 (Homo sapiens, UniProt P11712)
Cytochrome P450 2D6 = Cytochrome P450 2D6 (Homo sapiens, UniProt P10635);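 further: CYP2D6 member of a cytochrome P450 panel assay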
[4] = target: DNA dC->dU-editing enzyme APOBEC-3G (Homo sapiens, UniProt Q9HC16); assay type: functional;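 further: Dose-response counterscreen measuring inhibition of APOBEC3G DNA deaminase activity, run while confirming APOBEC3A inhibitors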
[5] = target: T2, Sentrin-specific protease 8 (Homo sapiens, UniProt Q96LD8); assay type: functional;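 further: luminescence read-out of SENP8 inhibition, dose-response confirmation following an ultra-high-throughput screen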
T2 sequence (Q96LD8 whole entry): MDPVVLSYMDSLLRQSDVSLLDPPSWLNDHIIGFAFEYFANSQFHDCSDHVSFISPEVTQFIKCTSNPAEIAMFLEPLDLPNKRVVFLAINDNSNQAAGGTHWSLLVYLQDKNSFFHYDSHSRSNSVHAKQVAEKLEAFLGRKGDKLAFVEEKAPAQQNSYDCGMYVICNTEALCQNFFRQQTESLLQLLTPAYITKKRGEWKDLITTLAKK

[6] = target: T3, Sentrin-specific protease 6 (Homo sapiens, UniProt Q9GZR1); assay type: functional;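 further: Luminescence-based dose-response confirmatory assay of SENP6 inhibition, following up an ultra-high-throughput screen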
T3 sequence (Q9GZR1 whole entry): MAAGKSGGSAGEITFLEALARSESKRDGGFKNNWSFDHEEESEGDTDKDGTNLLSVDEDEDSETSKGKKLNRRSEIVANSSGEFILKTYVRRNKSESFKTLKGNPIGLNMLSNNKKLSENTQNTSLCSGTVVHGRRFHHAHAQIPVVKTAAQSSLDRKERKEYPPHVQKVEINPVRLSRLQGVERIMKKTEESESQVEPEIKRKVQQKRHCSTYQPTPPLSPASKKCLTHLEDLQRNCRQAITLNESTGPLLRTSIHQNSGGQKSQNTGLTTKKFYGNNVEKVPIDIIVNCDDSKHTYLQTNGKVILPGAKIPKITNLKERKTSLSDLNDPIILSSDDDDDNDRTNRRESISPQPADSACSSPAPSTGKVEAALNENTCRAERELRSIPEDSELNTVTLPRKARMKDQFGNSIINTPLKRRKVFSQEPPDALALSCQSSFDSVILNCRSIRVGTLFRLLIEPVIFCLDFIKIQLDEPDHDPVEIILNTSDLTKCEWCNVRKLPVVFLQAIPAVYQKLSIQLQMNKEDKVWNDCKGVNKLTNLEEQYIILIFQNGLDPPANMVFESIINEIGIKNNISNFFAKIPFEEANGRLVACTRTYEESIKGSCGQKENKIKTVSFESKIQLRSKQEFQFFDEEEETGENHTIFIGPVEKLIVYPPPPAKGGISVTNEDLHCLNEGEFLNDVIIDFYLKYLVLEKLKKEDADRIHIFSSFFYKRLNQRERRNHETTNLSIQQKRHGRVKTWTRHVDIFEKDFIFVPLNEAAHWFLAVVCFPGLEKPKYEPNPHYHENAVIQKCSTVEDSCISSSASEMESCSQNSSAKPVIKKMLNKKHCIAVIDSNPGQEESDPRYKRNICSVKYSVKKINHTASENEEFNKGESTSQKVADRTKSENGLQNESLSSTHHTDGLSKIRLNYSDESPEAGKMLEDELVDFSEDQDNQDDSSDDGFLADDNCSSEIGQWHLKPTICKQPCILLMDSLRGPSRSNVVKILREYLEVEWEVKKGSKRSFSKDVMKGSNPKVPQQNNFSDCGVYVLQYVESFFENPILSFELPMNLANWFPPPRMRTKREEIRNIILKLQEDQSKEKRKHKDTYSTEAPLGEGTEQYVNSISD

Caspase-3 = target: T4, Caspase-3 (Homo sapiens, UniProt P42574); assay type: functional;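 further: Dose-response selectivity test against caspase-3 for candidate inhibitors of sentrin-specific proteases (SENPs)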
T4 sequence (P42574 whole entry): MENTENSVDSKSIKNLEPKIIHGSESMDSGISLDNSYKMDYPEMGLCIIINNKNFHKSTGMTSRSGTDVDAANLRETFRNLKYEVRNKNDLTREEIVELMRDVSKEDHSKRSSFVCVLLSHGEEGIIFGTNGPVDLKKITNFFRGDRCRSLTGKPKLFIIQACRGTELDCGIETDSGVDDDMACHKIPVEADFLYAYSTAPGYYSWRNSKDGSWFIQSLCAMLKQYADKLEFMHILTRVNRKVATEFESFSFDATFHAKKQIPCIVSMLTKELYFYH

[7] = target: T5, Sentrin-specific protease 7 (Homo sapiens, UniProt Q9BQF6); assay type: functional;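 further: Luminescence-based dose-response confirmation of ultra-high-throughput screening hits, measuring inhibition of SENP7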
T5 sequence (Q9BQF6 whole entry): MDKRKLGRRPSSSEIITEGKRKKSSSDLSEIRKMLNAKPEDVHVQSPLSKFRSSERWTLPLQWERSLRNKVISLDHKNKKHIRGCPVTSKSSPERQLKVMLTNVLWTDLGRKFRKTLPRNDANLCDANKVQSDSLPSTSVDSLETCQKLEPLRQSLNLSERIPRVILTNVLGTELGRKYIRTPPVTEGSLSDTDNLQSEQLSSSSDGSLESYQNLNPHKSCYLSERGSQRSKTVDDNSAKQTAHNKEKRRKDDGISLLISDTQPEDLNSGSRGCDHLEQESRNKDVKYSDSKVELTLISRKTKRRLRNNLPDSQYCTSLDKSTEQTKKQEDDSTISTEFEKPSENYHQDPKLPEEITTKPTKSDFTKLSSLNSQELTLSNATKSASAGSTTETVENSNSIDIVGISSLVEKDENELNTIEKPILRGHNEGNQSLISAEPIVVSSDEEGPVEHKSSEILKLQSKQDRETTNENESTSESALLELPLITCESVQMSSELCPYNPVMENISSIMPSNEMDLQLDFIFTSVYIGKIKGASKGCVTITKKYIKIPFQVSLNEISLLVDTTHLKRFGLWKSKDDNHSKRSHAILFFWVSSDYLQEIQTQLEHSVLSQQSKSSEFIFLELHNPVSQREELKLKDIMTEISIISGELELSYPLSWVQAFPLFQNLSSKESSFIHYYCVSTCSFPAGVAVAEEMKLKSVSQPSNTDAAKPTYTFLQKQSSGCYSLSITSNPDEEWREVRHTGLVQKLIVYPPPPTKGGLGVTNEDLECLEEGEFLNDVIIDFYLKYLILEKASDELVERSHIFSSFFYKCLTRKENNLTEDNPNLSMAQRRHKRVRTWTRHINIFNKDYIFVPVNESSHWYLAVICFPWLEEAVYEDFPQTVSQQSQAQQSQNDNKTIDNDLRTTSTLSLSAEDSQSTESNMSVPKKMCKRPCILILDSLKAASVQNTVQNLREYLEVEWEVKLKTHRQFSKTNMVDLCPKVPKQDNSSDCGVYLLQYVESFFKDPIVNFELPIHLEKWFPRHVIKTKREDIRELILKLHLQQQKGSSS

cells [8] = assay type: functional, cell-based
[9] = Luminescence Cell-Based Dose Response HTS to Identify Inhibitors of 5'UTR Stem-Loop Driven Prion Protein mRNA Translation in H4 Neuroglioblastoma Cells. [Related pubchem assays: 1827 (Project Summary), 1813 (Primary HTS)]; assay type: functional
cells [10] = assay type: functional, cell-based; remark: listed apart in the source
[11] = target: FAD-linked sulfhydryl oxidase ALR (Homo sapiens, UniProt P55789); assay: inhibitors of human ALR sulfhydryl oxidase, dose response, biochemical, H2O2 detection, luminescence, cherry-pick (AID 493248)
[12] = cytotoxicity toward NIH3T3 fibroblasts, dose response, counter-screen, cell-based, ATP luminescence, mouse fibroblasts (AID 2010); assay type: functional;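 further: cells exposed to compound for about 90 hours before reading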
BJ [13] = assay: cells; assay type: functional, cell-based; settings: Homo sapiens
[14] = cytotoxicity toward DRD oncogenic fibroblasts, dose response, cell-based, non-viral oncogenic, luminescence (AID 1934); assay type: functional; settings: Homo sapiens
[15] = inhibitors of SNCA 5'UTR-driven reporter translation, confirmation, H4 neuroglioma cells, luminescence (AID 1988); assay type: functional, cell-based
[16] = inhibitors of firefly luciferase expression or activity, dose response, H4 neuroglioma cells, luminescence (AID 1990); assay type: functional, cell-based
BJ [17] = assay: cytotoxicity toward BJ-TERT fibroblasts, dose response, cell-based, RAS-independent, luminescence (AID 1933); assay type: functional; settings: Homo sapiens
[18] = inhibitors of intracellular T. cruzi replication, confirmation, NIH3T3 host cells, beta-gal luminescence (AID 2044); assay type: functional, cell-based;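 further: intracellular parasites grown in NIH/3T3 mouse fibroblasts as host cells; luminescent beta-galactosidase reporter signal from transgenic T. cruzi replicating inside host cells; inhibitors lower the luminescence signal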
[19] = luciferase reporter signal reduction – luminescence, H4-C neuroglioblastoma cells, dose response (AID 2458); assay type: functional, cell-based;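 further: H4 neuroglioblastoma cells stably carrying a luciferase reporter gene fusion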
BJ [20] = assay: cytotoxicity toward BJ-TERT-LT-ST fibroblasts, dose response, cell-based, RAS-independent, luminescence (AID 1935); assay type: functional; settings: Homo sapiens;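 further: BJ fibroblasts immortalized with TERT plus LT and ST oncogenes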
[21] = inhibitors of SNCA 5'UTR-driven translation, confirmation, luminescence, H4 neuroglioblastoma cells, dose confirmation (AID 2454); assay type: functional, cell-based;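 further: H4 neuroglioblastoma cells carrying an alpha-synuclein 5'UTR luciferase reporter; potency for inhibition of the luciferase signal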
cells [22] = assay type: functional, cell-based; remark: listed apart in the source

DNA dC->dU-editing enzyme APOBEC-3G, sequence (Q9HC16 whole entry): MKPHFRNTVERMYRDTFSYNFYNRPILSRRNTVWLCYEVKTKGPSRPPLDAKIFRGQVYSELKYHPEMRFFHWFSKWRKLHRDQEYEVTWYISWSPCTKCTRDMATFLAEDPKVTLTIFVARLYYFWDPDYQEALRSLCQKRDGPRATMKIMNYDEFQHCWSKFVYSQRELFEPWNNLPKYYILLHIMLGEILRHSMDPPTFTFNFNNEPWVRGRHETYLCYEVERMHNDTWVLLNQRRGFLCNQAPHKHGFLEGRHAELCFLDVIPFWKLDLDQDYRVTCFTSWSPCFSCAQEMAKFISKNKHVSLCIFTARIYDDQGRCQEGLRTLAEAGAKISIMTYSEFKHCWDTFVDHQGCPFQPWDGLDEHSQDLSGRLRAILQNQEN
Eukaryotic translation initiation factor 4E, sequence (P63073 whole entry, the tested form may be a part): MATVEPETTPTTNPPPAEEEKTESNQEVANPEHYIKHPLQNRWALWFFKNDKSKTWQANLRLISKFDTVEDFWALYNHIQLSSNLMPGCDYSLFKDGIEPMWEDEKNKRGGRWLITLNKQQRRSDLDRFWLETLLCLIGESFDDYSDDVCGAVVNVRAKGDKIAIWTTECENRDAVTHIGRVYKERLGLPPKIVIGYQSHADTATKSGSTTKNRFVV
DNA dC->dU-editing enzyme APOBEC-3A, sequence (P31941 whole entry): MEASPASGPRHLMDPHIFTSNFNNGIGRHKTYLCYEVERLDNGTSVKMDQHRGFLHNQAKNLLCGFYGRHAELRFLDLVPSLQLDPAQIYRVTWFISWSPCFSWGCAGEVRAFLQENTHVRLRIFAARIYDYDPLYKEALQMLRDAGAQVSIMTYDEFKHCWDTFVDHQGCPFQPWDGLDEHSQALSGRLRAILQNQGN
Cytochrome P450 2C9, sequence (P11712 whole entry): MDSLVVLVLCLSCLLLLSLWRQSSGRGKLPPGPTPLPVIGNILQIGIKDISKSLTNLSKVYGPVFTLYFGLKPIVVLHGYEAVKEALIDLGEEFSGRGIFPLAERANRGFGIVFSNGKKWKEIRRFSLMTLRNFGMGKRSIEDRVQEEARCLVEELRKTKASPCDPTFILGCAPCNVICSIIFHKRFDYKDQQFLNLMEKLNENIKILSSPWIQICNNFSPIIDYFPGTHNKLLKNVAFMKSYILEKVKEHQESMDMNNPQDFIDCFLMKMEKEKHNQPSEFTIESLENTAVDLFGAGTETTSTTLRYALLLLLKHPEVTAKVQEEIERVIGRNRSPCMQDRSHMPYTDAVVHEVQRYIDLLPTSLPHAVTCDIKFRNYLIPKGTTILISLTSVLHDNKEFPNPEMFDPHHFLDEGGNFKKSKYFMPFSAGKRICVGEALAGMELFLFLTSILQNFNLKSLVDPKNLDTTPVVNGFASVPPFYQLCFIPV
Cytochrome P450 2D6, sequence (P10635 whole entry): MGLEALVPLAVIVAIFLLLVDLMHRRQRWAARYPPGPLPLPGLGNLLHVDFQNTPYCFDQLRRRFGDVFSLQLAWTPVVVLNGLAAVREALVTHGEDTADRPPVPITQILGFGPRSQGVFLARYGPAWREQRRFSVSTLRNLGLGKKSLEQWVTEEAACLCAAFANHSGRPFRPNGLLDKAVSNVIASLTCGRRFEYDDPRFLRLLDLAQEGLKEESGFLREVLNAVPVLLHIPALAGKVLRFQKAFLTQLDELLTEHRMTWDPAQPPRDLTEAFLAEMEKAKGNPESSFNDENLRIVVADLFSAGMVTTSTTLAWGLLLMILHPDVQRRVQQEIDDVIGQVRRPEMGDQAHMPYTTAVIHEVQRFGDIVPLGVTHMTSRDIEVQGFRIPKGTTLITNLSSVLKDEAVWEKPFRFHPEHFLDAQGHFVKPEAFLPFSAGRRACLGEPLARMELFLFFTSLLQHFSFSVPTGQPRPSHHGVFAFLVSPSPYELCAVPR
FAD-linked sulfhydryl oxidase ALR, sequence (P55789 whole entry): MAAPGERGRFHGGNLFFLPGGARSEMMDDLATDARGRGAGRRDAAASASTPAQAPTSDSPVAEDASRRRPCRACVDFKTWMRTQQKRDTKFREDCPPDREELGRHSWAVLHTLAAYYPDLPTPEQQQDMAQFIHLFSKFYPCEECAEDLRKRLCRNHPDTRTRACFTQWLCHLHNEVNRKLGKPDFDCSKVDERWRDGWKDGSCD

Structure (SMILES)	IC50 [1]	IC50 [3]	IC50 [4]	IC50 [5]	IC50 [6]	IC50 (Caspase-3)	IC50 [7]	further results
O=C(NCc1ccc(F)cc1)c1c2c(nc3ccccc13)CCC2	50 µM (inactive)							IC50 [2]: 5.44 µM (active)
Cc1[nH]c2ccccc2c1/C=C(\C#N)C(=O)NC(C)c1ccccc1 (stereo not given)		1.87 µM (active)	2.64 µM (active)					AC50 (Cytochrome P450 2C9): inconclusive; AC50 (Cytochrome P450 2D6): 8.91 µM (inconclusive)
CC(=O)c1ccc[n+](CC(=O)NC(C)c2ccccc2)c1 (stereo not given)		3.57 µM (active)	6.17 µM (active)					
CC1CCc2nn(CC(=O)N3CCCCCC3)cc2C1 (stereo not given)	> 64 µM (inactive)							
CCOC(=O)c1ccc(NC(=O)/C=C/c2cccs2)cc1				14.5 µM (active)	15 µM (active)	21.6 µM (active)	4.96 µM (active)	
O=[N+]([O-])c1cccc(/C=N/Nc2ccccn2)c1				> 100 µM (inactive)	> 100 µM (inactive)	8.82 µM (active)	7.65 µM (active)	
COc1ccccc1-c1noc(CSc2nc(C)cc(O)n2)n1		16.6 µM (active)	19.4 µM (active)					
O=C(O)c1ccc2cc(-c3ccccc3)[nH]c2c1				1.53 µM (active)	1.08 µM (active)	1.22 µM (active)	0.938 µM (active)	EC50 (cells [8]): 2.55 µM (active); EC50 [9]: 11.8 µM (inconclusive); EC50 (cells [10]): > 350 µM (not active)
COc1ccc(OC)c(Nc2c3c(nc4ccccc24)CCC3)c1								AC50 [11]: 16.2 µM (active); EC50 [12]: 0.432 µM (active); EC50 (BJ [13]): 15 µM (inconclusive); EC50 [14]: 12.4 µM (active); EC50 [15]: < 0.1 µM (active); EC50 [16]: 3.29 µM (active); EC50 (BJ [17]): 0.463 µM (active); EC50 [18]: 3.15 µM (active); EC50 [19]: 0.716 µM (active); EC50 (BJ [20]): 0.284 µM (inconclusive); EC50 [21]: 1.18 µM (active); EC50 [9]: 0.355 µM (active); EC50 (cells [22]): 0.804 µM (active)
CC(=O)C1=C(c2ccccc2)OC(N)=C(C#N)C1c1ccc(O)cc1 (stereo not given)	> 64 µM (inactive)							

Reference: ChEMBL document CHEMBL1201862, “PubChem BioAssay data set” (2004)
